Reference: PMC11411520 (ACS Omega, 2024)
Entries after “also recorded” stand apart in the source; their conditions may differ. No end group written: not given here. *: point of attachment. Biotin = O=C1N[C@H]2[C@H](CS[C@H]2CCCCC(=O)*)N1

System: insulin
Experiment: electrochemical impedance spectroscopy
Format: binding
Details: two experimental cases and one scrambled sequence; different insulin concentrations; PBS

EACVESGGGENLYFQK(Biotin) [scrambled sequence]
raw phase change (Zphz) across different frequencies: The largest change across different frequencies is observed in the scrambled sequence negative control compared to the other two experimental cases; also recorded: The largest change across different frequencies was observed in (C)
